# According to patent US11319289B2, “5-hydroxy pyridine-based compound for use as P2X1 and P2X3 receptor antagonist and pharmaceutical composition comprising same” (GWANGJU INSTITUTE OF SCIENCE AND TECHNOLOGY, priority 2017, dated 2022):
# Assays:
# [1] = target: T1, CYP450 3A4 (Homo sapiens, UniProt P08684); experiment: CYP inhibition assay (Vivid fluorometric), 3A4; format: biochemical; settings: 1 μM in Table 5
# T1 construct: purchased Invitrogen
# Description: (§1) CYP450 (1A2, 2C9, 3A4) enzyme assay was performed by a fluorometric assay using a Vivid® CYP450 screening kit (Invitrogen, USA, CA) in a 96-well black plate according to manufacturer's instructions with some modifications. The assay was performed at room temperature, and the final assay volume was 100 μL. […]
# (§2) A master pre-mixture (enzyme (0.5 nmol recombinant human CYP450 enzyme)/NADP regeneration solution (333 mM glucose-6-phosphate dissolved, 30 U/mL glucose-6-phosphate dehydrogenase in 100 mM KH2PO4 solution at pH 8.0)) was prepared as a CYP450 reaction buffer (200 mM KH2PO4, pH 8.0). The master pre-mixture was added to each well of the 96 well plate, followed by the vehicle DMSO (control) and test compounds, and the mixture was preincubated for 10 minutes in the plate for background reading. Subsequently, the enzyme reaction was immediately initiated through the addition of CYP450 substrate/NADP^+ mixture. After incubation for 40 minutes, the fluorescence of the product was measured with a CHAMELEON™ multi-technology plate reader (2C9, 3A4: excitation wavelength of 530 nm and emission wavelength of 590 nm, 1A2: excitation wavelength of 415 nm and emission wavelength of 460 nm). The effect of the test compounds on CYP450 (1A2, 2C9, 3A4) was expressed as the percentage of enzyme activity.
# [2] = target: T2, CYP450 2C9 (Homo sapiens, UniProt P11712); experiment: CYP inhibition assay (Vivid fluorometric), 2C9; format: biochemical; settings: 1 μM in Table 5
# T2 construct: purchased Invitrogen
# T2 sequence (P11712 whole entry): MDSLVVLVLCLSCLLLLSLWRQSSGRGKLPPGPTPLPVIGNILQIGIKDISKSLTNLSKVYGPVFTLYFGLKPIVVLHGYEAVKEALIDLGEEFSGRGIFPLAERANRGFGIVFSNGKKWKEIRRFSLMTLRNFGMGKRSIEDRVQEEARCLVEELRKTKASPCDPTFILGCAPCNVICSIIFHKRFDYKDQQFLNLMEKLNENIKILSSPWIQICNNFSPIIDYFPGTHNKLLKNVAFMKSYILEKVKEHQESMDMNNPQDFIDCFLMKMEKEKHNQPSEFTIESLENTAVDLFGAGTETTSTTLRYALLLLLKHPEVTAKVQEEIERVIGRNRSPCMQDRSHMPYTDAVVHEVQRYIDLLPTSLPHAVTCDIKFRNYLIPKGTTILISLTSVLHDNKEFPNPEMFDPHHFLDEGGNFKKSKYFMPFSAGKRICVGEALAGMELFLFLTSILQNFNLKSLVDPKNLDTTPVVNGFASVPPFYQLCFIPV
# Description: as §1, §2
# [3] = target: T3, hERG K+ channel (Homo sapiens, UniProt Q12809); experiment: hERG K+ channel patch-clamp assay in CHO-K1 Tet-On hERG cells; format: cell-based
# T3 construct: host or cells: CHO-K1 Tet-On hERG cells
# T3 sequence (Q12809 whole entry): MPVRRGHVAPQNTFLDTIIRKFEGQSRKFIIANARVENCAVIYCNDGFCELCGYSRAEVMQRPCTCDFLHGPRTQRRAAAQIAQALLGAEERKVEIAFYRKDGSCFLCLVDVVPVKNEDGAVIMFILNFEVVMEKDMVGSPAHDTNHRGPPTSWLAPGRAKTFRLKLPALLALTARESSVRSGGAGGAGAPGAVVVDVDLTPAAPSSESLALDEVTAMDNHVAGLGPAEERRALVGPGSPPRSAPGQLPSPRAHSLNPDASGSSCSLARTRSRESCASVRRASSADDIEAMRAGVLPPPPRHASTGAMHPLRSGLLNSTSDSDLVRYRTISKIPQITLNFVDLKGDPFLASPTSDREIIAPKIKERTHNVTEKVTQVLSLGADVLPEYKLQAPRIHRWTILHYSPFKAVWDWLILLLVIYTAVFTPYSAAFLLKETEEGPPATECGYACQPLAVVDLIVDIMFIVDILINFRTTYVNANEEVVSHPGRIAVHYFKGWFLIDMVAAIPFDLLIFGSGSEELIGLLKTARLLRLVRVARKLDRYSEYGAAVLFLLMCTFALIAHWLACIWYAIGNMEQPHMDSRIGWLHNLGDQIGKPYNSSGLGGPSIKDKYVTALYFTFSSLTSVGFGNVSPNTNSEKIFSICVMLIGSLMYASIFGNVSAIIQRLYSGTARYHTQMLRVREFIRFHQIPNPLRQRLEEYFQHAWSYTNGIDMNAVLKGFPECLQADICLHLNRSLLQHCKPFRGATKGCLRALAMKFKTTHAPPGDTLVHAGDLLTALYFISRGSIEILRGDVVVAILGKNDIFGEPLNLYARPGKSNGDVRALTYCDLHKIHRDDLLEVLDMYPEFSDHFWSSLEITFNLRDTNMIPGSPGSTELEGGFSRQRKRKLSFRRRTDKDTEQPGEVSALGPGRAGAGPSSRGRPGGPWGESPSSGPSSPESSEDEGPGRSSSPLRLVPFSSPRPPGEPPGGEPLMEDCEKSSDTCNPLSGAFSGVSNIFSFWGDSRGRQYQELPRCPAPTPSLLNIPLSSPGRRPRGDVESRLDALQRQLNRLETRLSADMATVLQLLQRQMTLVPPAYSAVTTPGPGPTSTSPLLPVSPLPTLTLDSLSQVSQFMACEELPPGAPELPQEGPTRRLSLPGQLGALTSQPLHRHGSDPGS
# Description: 2-2. hERF Channel Test Method
# hERG K^+ Channel Conventional Patch-Clamp Assay
# CHO-K1 cells expressing hERG channels via an inducible Tet-On gene expression system (CHO-K1 Tet-On hERG cells) were purchased from IonGate Biosciences GmbH (Frankfurt, Germany). CHO-K1 Tet-On hERG cells were incubated in Dulbecco's modified Eagle's medium (DMEM) containing 10% (v/v) fetal bovine serum, penicillin (100 U/mL), streptomycin (100 μg/mL), fungizone (2.5 μg/mL), as well as selection antibiotics, geneticin G418 (200 μg/mL), hygromycin (200 μg/mL) and puromycin (2 μg/mL) in a humidified condition of 5% CO2 at 37° C. The cells were passaged by treatment with trypsin-EDTA every three days. […]
# NPC-16 Patchliner (Nanion Technologies, Munchen, Germany), an automated patch-clamp apparatus, was used for the whole-cell recordings. Whole-cell currents were recorded using an intracellular solution (unit in mM) containing 50 KCl, 60 KF, 10 NaCl, 2 MgCl2, 20 EGTA and 10 HEPES (pH 7.2) and an extracellular solution (unit in mM) containing 140 NaCl, 4 KCl, 2 CaCl2, 1MgCl2, 5 glucose and 10 HEPES (pH 7.4). […]
# hERG channel currents were recorded using a parallel EPC-10 patch clamp amplifier (HEKA Elektronik, Lambrecht/Pfalz, Germany), and low-pass filtering (10 kHz) was performed with a 4-pole Bessel filter. […]
# T1 sequence (P08684 whole entry): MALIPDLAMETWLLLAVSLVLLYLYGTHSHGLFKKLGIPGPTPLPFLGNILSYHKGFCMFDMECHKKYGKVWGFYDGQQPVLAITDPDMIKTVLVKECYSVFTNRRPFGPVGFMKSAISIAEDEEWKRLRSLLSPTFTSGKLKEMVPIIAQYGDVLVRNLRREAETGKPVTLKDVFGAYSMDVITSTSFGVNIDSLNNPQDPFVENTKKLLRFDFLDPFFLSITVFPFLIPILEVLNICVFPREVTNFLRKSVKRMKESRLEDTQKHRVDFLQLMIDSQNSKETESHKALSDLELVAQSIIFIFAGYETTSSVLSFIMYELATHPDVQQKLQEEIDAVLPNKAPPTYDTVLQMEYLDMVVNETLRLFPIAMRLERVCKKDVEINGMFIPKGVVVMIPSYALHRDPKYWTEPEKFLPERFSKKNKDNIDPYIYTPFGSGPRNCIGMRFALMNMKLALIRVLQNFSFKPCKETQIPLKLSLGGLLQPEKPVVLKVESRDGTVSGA
compound,measurement,setting,value
"CCCc1nc(Cc2cccc(Oc3ccccc3)c2)c(C)c(C(=O)O)c1O [Compound 29, 3-Hydroxy-5-methyl-6-(3-phenoxybenzyl)-2-propylisonicotinic acid]","CYP450 inhibition, 3A4 isozyme",[1],weak inhibitory effect
same,"CYP450 inhibition, 2C9 isozyme",[2],weak inhibitory effect
same,IC50,"[3]; patch clamp, CHO-K1 Tet-On hERG cells",> 100 µM
same,in vitro inhibitory activity against hERG channels,[3]; result in words,did not show any inhibitory activity
